Test results taken from patent publication US20130131059A1, “METHOD FOR TREATING OPHTHALMIC DISEASES USING KINASE INHIBITOR COMPOUNDS IN PRODRUG FORMS” (INSPIRE PHARMACEUTICALS, INC., priority 2010, published 2013).
Read-outs that look alike come from different tables or passages of the source.

Tests used:
[1] = Ocular comfort, composite behaviour score after ocular instillation; assay type: in vivo, rabbit; conditions: 4 mM, two drops to right eye, evaluated for 15 minutes; FIGS. 1 and 2
Protocol: The desired compound at a concentration of 4 mM in a formulation of 10 mM phosphate, 1% polysorbate 80, 0.85% NaCl, 0.02% BAC, 0.2% EDTA pH 7.0 was administered as two 30 µl drops to the right eye of each rabbit within a dosing group. The rabbits were evaluated for 15 minutes after ocular instillation and their changes in behavior were recorded. […] The higher the score, the more discomfort an animal senses. A mean ±SE was generated for each group and depicted in FIGS. 1 and 2.

[2] = molecular target: T1, ROCK2 (Homo sapiens, UniProt O75116); assay: Rho kinase inhibition assay (IMAP fluorescence polarization), ROCK2; assay type: biochemical; conditions: 10 μM ATP, 60 min at room temperature
T1 construct: purchased Upstate/Chemicon 14-451
T1 sequence (O75116 whole entry): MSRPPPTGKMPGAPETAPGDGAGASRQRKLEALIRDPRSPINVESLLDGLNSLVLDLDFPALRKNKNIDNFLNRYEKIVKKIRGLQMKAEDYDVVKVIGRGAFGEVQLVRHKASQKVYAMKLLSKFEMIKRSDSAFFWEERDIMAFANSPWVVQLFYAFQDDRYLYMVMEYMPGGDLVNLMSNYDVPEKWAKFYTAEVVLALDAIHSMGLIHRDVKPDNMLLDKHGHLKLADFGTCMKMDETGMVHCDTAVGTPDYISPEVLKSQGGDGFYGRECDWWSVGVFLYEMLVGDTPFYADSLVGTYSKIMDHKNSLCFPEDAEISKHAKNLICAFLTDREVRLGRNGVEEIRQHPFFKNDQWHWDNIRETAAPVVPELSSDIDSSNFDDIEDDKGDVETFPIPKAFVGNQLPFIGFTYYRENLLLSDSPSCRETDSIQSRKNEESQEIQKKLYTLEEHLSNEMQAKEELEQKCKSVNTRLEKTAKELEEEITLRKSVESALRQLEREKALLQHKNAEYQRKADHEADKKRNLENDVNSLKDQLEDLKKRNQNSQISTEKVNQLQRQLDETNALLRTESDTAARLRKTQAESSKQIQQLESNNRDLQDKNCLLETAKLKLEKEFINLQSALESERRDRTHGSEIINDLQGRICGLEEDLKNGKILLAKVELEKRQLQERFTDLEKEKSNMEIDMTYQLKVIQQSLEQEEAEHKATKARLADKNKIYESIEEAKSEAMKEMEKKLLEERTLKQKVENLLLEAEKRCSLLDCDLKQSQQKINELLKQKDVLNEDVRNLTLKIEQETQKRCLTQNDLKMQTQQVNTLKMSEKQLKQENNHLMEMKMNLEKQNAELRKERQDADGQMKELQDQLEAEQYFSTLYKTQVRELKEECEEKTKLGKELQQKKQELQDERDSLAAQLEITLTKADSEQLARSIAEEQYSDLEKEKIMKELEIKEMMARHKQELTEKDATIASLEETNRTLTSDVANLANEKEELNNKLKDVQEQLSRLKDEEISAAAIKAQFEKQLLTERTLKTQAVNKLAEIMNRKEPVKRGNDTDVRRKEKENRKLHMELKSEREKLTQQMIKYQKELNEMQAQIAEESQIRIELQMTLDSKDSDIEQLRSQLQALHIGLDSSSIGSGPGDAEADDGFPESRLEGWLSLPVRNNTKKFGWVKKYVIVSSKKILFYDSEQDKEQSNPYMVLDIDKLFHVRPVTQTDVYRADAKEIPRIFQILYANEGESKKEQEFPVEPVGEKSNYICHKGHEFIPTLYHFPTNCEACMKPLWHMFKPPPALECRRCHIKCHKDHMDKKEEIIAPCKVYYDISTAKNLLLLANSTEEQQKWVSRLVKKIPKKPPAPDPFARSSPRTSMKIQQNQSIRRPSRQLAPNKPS
Protocol: (Molecular Devices product number R7184) was pre-incubated with a test compound for 5 minutes in buffer containing 10 mM Tris-HCl pH 7.2, 10 mM MgCl2, and 0.1% BSA. Following the pre-incubation, 10 μM ATP was added to initiate the reaction. After 60 minutes at room temperature, Molecular Devices IMAP™ binding solution was added to bind phosphorylated substrate. After 30 minutes of incubation in the presence of the IMAP™ beads, the fluorescence polarization was read and the ratio was reported as mP.
See Tian et al., Arch. Ophthalmol. […] Ophthalmol. Vis. […] Ophthalmol. […] Cytoskel. […] Ophthalmol. Vis. […] Ophthalmol. Vis.

[3] = molecular target: T2, ROCK1 (Homo sapiens, UniProt Q13464); assay: Rho kinase inhibition assay (IMAP fluorescence polarization), ROCK1; assay type: biochemical; conditions: 10 μM ATP, 60 min at room temperature; read-out: ROCK1 IC50
T2 construct: purchased Upstate/Chemicon 14-601
T2 sequence (Q13464 whole entry): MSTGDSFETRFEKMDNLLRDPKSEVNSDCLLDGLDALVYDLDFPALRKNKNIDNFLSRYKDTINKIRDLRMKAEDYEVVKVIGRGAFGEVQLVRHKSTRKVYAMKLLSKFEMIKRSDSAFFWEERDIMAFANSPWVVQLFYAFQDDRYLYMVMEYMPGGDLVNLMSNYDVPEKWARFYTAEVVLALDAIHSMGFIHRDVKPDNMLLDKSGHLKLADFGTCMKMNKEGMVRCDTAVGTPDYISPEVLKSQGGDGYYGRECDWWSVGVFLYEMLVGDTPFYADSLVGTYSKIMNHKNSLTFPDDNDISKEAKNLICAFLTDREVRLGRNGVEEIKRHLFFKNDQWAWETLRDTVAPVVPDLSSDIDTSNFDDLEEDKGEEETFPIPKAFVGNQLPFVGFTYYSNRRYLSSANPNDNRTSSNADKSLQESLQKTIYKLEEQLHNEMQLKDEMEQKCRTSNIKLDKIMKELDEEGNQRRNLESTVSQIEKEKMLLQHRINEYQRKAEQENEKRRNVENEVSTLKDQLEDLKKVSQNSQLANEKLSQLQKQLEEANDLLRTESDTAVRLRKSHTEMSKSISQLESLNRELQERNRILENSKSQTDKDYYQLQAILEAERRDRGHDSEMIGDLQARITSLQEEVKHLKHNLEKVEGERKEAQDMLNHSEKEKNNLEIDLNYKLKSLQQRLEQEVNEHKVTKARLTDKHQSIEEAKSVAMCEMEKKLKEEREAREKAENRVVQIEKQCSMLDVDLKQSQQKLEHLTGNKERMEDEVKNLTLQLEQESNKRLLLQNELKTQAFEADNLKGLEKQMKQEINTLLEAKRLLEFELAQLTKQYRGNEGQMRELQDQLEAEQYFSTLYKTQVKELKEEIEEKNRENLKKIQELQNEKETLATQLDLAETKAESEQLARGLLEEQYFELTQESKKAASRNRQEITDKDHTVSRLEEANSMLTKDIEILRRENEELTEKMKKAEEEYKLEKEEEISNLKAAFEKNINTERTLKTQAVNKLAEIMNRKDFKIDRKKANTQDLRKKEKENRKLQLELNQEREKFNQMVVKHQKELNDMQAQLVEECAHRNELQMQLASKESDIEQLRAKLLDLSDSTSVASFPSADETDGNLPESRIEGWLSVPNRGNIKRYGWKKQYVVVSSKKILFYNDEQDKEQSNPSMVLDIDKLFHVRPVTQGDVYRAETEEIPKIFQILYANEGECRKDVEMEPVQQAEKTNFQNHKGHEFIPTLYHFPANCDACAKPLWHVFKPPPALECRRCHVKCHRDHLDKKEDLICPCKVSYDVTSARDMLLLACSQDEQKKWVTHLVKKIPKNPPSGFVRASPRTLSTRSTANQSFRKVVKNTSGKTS
Protocol: Following the pre-incubation, 10 μM ATP was added to initiate the reaction. After 60 minutes at room temperature, Molecular Devices IMAP™ binding solution was added to bind phosphorylated substrate. After 30 minutes of incubation in the presence of the IMAP™ beads, the fluorescence polarization was read and the ratio was reported as mP.

[4] = Ocular surface and aqueous humor bioavailability; assay type: in vivo, New Zealand White rabbits; conditions: New Zealand White, rabbit, topical, 30 μl of 1 mM (0.04% w/v) per eye, Compound 14 dosed 1 mM, 1 × 30 uL, 4 eyes, time 0.83 h
[5] = Ocular surface and aqueous humor bioavailability; assay type: in vivo, New Zealand White rabbits; conditions: New Zealand White, rabbit, topical, 30 μl of 1 mM (0.04% w/v) per eye, Compound 14 dosed 1 mM, 1 × 30 uL, 4 eyes
Protocol: Dose Formulation and Administration. Compounds 14 (prodrug) and 49 (base compound) were formulated at 0.04% w/v (the equivalent millimolar concentration is 1 mM) in 10 mM phosphate, 0.8% polysorbate 80, 0.85% NaCl, 0.01% BAC, 0.1% EDTA at pH 7.3. Each compound was administered as a 30 μl drop to both eyes of each animal within a dosing group and the ocular and systemic exposure was examined as described in Example 49.
Study sampling. 40 μL of saline was applied to the eyes at 0.083, 1, 2, and 4 hours after administration of each compound and the lavage fluids were collected as samples. Aqueous humor and ocular surface samples were obtained from 2 animals (4 eyes) per dosing group at 0.083, 1, 2, and 4 hours post dosing, by the methods described in Example 49. Ocular surface relates to the surface of the cornea and conjunctiva. Ocular surface residence time is the average time that a compound resides on the ocular surface.

[6] = aqueous humor, read-out: Aqueous Humor concentration of [14], Mean
[7] = ocular surface (saline lavage fluid), read-out: Ocular Surface concentration of [14], Mean

For `Cc1ccc(CN2CC[C@@H](Nc3cccc4cnccc34)C2)cc1OCCOC(=O)c1ccccc1` [Compound 14, 2-(5-(((R)-3-isoquinolin-5-ylamino)pyrrolidin-1-yl)methyl)-2-methylphenoxy)ethyl benzoate], the “Ocular discomfort (composite score) versus parent compound” value [1] was “reduced level of discomfort compared to the parent compound”, the IC50 [2] was 0.717 µM and the IC50 [3] was 2.46 µM. The concentration at […] [4, 6] was 0 µM, the concentration at […] [4, 7] was 24.3 µM and the concentration at 1 h [5, 6] was 0 µM. It also gave a concentration at 2 h [5, 6] of 0 µM, a concentration at 4 h [5, 6] of 0 nM and a concentration at 1 h [5, 7] of 3.08 µM. It also gave a concentration at 2 h [5, 7] of 0.245 µM and a concentration at 4 h [5, 7] of 0 nM.
